The IC50 is the concentration needed to halve the response being measured. Lower therefore signals greater potency in that assay.

The assay deals with T1, human DGAT1 (Homo sapiens, UniProt O75907).
T1 construct: FLAG (N); made in house; host or cells: SF9 insect cells (baculovirus, pFastBac); total cell membranes used as the enzyme source
T1 sequence (O75907 1-488): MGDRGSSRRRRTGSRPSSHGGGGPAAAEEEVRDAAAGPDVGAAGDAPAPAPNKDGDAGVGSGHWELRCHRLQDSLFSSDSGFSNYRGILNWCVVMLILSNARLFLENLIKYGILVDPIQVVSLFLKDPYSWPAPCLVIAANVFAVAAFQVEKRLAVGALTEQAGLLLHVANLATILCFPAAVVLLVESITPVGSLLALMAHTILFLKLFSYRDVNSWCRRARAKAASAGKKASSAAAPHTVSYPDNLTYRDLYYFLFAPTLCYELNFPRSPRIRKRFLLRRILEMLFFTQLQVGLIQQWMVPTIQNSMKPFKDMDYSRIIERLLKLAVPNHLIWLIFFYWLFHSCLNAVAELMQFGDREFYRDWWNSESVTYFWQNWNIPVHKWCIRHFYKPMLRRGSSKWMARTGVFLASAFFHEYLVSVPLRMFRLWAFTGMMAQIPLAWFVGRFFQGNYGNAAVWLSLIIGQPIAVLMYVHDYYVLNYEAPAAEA
Briefly: DGAT1 FlashPlate inhibition assay with DGAT1 membrane preparations. In kind it is biochemical. The note with it: IC50 values expressed in M; pIC50 = -logIC50; inhibition of DGAT1 activity. An excerpt: The inhibiting activity of the present compounds on DGAT1 activity was screened in a single well procedure assay using DGAT1 comprising membrane preparations and DGAT1 substrate comprising micelles and determining formed radio-active triacylglycerol coming in close proximity of a flashplate surface by radioluminescence.
Said assay is described in full detail in WO2006/067071, the content of which is incorporated herein by reference.
By DGAT1 activity is meant the transfer of coenzyme A activated fatty acids to the 3-position of 1,2-diacylglycerols, thus forming a triglyceride molecule, by enzyme DGAT1.
human DGAT1 (NM012079.2) was cloned into the pFastBac vector, containing translation start, a FLAG-tag at the N-terminus as described in literature and a viral Kozak sequence (AAX) preceding the ATG to improve expression in insect cells. Expression was done as described in literature (Cases, S., Smith, S. J., Zheng, Y., Myers H. M., Lear, S. R., Sande, E., Novak, S., Collins, C., Welch, C. B., Lusis, A. J., Erickson, S. K. and Farese, R. V. (1998) Proc. Natl. Acad. Sci. USA 95, 13018-13023.) using SF9 cells.
72 h transfected SF9 cells were collected by centrifugation (13000 rpm-15 min-4° C.) and lysed in 2×500 ml lysis buffer (0.1M Sucrose, 50 mM KCl, 40 mM KH2PO4, 30 mM EDTA pH 7.2. Cells were homogenized by cell disruptor. After centrifugation 1380 rpm-15 min-4° C. (SN discarded), pellet was resuspended in 500 ml lysis buffer and total cell membranes collected by ultracentrifugation at 34000 rpm (100 000 g) for 60 min (4° C.). The collected membranes were resuspended in lysis buffer, divided in aliquots and stored with 10% glycerol at −80° C. until use.
Add 1 ml dioleoyl-sn-glycerol (10 mg/ml) to 10 ml of L-α-phosphatidylcholine (1 mg/ml) and 10 ml of L-α-phosphatidyl-L-serine (1 mg/ml) in a thick glass recipient. Evaporate under nitrogen and put on ice for 15 minutes. Reconstitute in 10 ml Tris/HCl (10 mM, pH 7.4) by sonication on ice. The sonification process consists of sonification cycles of 10 seconds in the sonification bath followed by 10 seconds cool down on ice and repeating this sonification cycle till a homogeneous solution is obtained (takes about 15 minutes). The thus obtained micelles are stored at −20° C. till later use and contain DAG at a final concentration of 1.61 mM.
• 50 mM Tris-HCl (pH 7.4), 150 mM MgCl2, 1 mM EDTA, 0.2% BSA. b) N-ethylmaleimide, 5M • Dissolve 5 g into a final volume of 8 ml DMSO 100% and store at −20° C. in aliquots till later use. c) Substrate mix (for 1 384 well plate=3840 μl) • 612 μl micelles stock (51 μM final) • 16.6 μl oleoylCoA 9.7 mM • 23 μl [^3H]-oleoylCoA (49 Ci/mmol, 500 μCi/ml) • 3188.4 μl Tris pH 7.4, 10 mM d) Enzyme mix (for 1 384 well plate=3520 μl) (5 μg/ml) • Add 11.73 μl of DGAT membrane stock (1500 μg/ml stock) to 3508 μl assay buffer. e) Stop mix (for 1 384 well plate=7.68 ml) (250 mM) • Add 384 μl of N-ethylmaleimide (5M) to 3.456 ml DMSO 100%, and further dilute 3.84 ml of said solution with 3.84 ml DMSO 10%. Method
DGAT activity in membrane preparations was assayed in 50 mM Tris-HCl (pH 7.4), 150 mM MgCl2, 1 mM EDTA and 0.2% BSA, containing 50 μM DAG, […] PC/PS and 8.4 μM [^3H]-oleoylCoA (at a specific activity of 30 nCi/well) in a final volume of 50 μl in 384-well format using the red shifted Basic Image FlashPlate™ (Perkin Elmer Cat. No. SMP400).
In detail, 10 μl enzyme mix and 10 μl substrate mix were added to 30 μl of assay buffer, optionally in the presence of 1 μl DMSO (blank and controls) or 1 μl of the compound to be tested. This reaction mixture was incubated for 120 minutes at 37° C. and the enzymatic reaction stopped by adding 20 μl of the stop mix. The plates were sealed and the vesicles allowed to settle overnight at room temperature. Plates were centrifuged for 5 minutes at 1500 rpm and measured in Leadseeker. […]
Consider `O=C(Nc1cccc(N2CCCC2)c1)c1ccc(N2CCN(C(=O)Cc3c(Cl)cccc3Cl)CC2)cc1` [Compound 131], for which 0.0309 µM corresponded to half-maximal inhibition (IC50). Take `Cc1cc(C)c(NC(=O)N2CCN(c3ccc(NC(=O)c4ccccc4-c4ccc(C(F)(F)F)cc4)cc3)CC2)c(C)c1` [Compound 85]: inhibition was half-maximal at 0.178 µM (IC50). Against the preceding molecule, the IC50 is about 5.8-fold higher. In turn, `Cc1cc(C)c(NC(=O)N2CCC(c3ccc(NC(=O)c4ccccc4-c4ccc(C(F)(F)F)cc4)cc3)CC2)c(Br)c1` [Compound 118] showed an IC50 of 0.631 µM. `O=C(Nc1ccc(C2CCN(C(=O)Nc3c(Cl)cccc3Cl)CC2)cc1)c1cccc2c1-c1ccccc1C2=O` [Compound 63] had an IC50 of 0.12 µM. Compared with the last molecule, the IC50 is about 5.3-fold lower.

Molecule `Cc1cccc(C)c1NC(=O)N1CCC(c2ccc(NC(=O)c3ccccc3-c3ccc(C(F)(F)F)cc3)cc2)CC1` [Compound 128] had an IC50 of 0.661 µM.

In turn, `O=C(Nc1ccc(N2CCN(C(=O)NCCCc3ccccc3)CC2)cc1)c1ccccc1-c1ccc(C(F)(F)F)cc1` [Compound 71] gave an IC50 of 3.55 µM. The same measure for `O=C(Nc1ccc(N2CCN(C(=O)Nc3c(Cl)cccc3Cl)CC2)cc1)c1ccc(-c2nnn[nH]2)cc1` [Compound 33]: 1.95 µM; for `O=C(Nc1ccc(N2CCN(C(=O)Nc3c(Cl)cccc3Cl)CC2)cc1)c1ccc(-n2ccnc2)cc1` [Compound 24]: 0.347 µM; for `CN(C)c1ccc(NC(=O)N2CC=C(c3ccc(NC(=O)c4ccccc4-c4ccc(C(F)(F)F)cc4)cc3)CC2)cc1` [Compound 124]: 6.76 µM. The same measure for `O=C(Nc1ccc(N2CCN(C(=O)Nc3c(Cl)cccc3Cl)CC2)cc1)c1cccc(-c2ccco2)c1` [Compound 14]: 0.000977 µM; for `CC(C)c1ccccc1NC(=O)N1CCN(c2ccc(NC(=O)c3ccccc3-c3ccc(C(F)(F)F)cc3)cc2)CC1` [Compound 77]: 4.47 µM. In the case of `O=C(Nc1ccc(C2CCN(C(=O)Nc3c(Cl)cccc3Cl)CC2)cc1)C1CC(O)CN1` (centres unmarked) [Compound 47] it was 5.37 µM; in that of `O=C(Nc1ccc(C2CCN(C(=O)Nc3c(Cl)cccc3Cl)CC2)cc1)C1CCCNC1` (centres unmarked) [Compound 49], 8.91 µM.

Turning to `CN1CCN(c2ccc(C(=O)Nc3ccc(N4CCN(C(=O)Nc5c(Cl)cccc5Cl)CC4)cc3)cc2)CC1` [Compound 44], the IC50 was 0.1 µM. Compared with the last molecule, the IC50 is about 89-fold lower.

Regarding `O=C(Nc1ccc(N2CCN(C(=O)Nc3c(Cl)cccc3Cl)CC2)cc1)c1cccc(N2CCCC2)c1` [Compound 12], the IC50 was 0.00135 µM. The same measure for `O=C(Nc1ccc(N2CCN(C(=O)Nc3ccccc3Cl)CC2)cc1)c1ccccc1-c1ccc(C(F)(F)F)cc1` [Compound 89]: 1.7 µM; for `Cc1ccccc1NC(=O)N1CCN(c2ccc(NC(=O)c3ccccc3-c3ccc(C(F)(F)F)cc3)cc2)CC1` [Compound 74]: 1.1 µM. In the case of `O=C(Nc1ccc(C2CCN(C(=O)Nc3c(Cl)cccc3Cl)CC2)cc1)c1ccccc1-c1ccccc1` [Compound 56] it was 0.331 µM; in that of `Cc1ccc2c(c1)C(=O)c1cc(C)cc(C(=O)Nc3ccc(C4CCN(C(=O)Nc5c(Cl)cccc5Cl)CC4)cc3)c1-2` [Compound 64], 0.132 µM. `COc1ccc(CNC(=O)N2CC=C(c3ccc(NC(=O)c4ccccc4-c4ccc(C(F)(F)F)cc4)cc3)CC2)cc1` [Compound 123] gave an IC50 of 4.17 µM. In the case of `O=C(Nc1ccc(N2CCN(C(=O)Nc3ccc4c(c3)OCCO4)CC2)cc1)c1ccccc1-c1ccc(C(F)(F)F)cc1` [Compound 106] it was 7.24 µM. `CC(C)(C)OC(=O)N1CCCC(C(=O)Nc2ccc(C3CCN(C(=O)Nc4c(Cl)cccc4Cl)CC3)cc2)C1` (centres unmarked) [Compound 52] gave an IC50 of 0.0174 µM.

Take `CC(C)(C)OC(=O)N1CC(C(=O)Nc2ccc(C3CCN(C(=O)Nc4c(Cl)cccc4Cl)CC3)cc2)C1` [Compound 1]: 0.00813 µM corresponded to half-maximal inhibition (IC50). This IC50 is about 2.1-fold lower than that of the molecule before. `Cc1n[nH]c(C)c1-c1ccccc1C(=O)Nc1ccc(N2CCN(C(=O)Nc3c(Cl)cccc3Cl)CC2)cc1` [Compound 26] showed an IC50 of 0.398 µM.

With `CCc1cccc(C)c1NC(=O)N1CCN(c2ccc(NC(=O)c3ccccc3-c3ccc(C(F)(F)F)cc3)cc2)CC1` [Compound 83], it took 1.55 µM to reach half-maximal inhibition (IC50). Against the preceding molecule, the IC50 is about 3.9-fold higher. In the case of `Cc1ccc([N+](=O)[O-])c(NC(=O)N2CCN(c3ccc(NC(=O)c4ccccc4-c4ccc(C(F)(F)F)cc4)cc3)CC2)c1C` [Compound 101], inhibition was half-maximal at 0.525 µM (IC50). The same measure for `Cc1nnnn1-c1cccc(C(=O)Nc2ccc(N3CCN(C(=O)Nc4c(Cl)cccc4Cl)CC3)cc2)c1` [Compound 31]: 0.269 µM; for `CN(C)c1ccc(NC(=O)N2CCN(c3ccc(NC(=O)c4ccccc4-c4ccc(C(F)(F)F)cc4)cc3)CC2)cc1` [Compound 73]: 3.55 µM; for `CC(C)(C)c1ccc(-c2ccccc2C(=O)Nc2ccc(N3CCN(C(=O)Nc4c(Cl)cccc4Cl)CC3)cc2)cc1` [Compound 35]: 0.117 µM. For `O=C(Nc1ccc(N2CCN(C(=O)Nc3c(Cl)cccc3Cl)CC2)cc1)c1ccccc1-n1ccnc1` [Compound 22], the IC50 was 1.38 µM. With `O=C(Nc1ccc(N2CCN(C(=O)Nc3c(Cl)cccc3Cl)CC2)cc1)c1ccccc1N1CCOCC1` [Compound 39], the IC50 is 0.38 µM. Consider `CC(C)(C)NC(=O)N1CCN(c2ccc(NC(=O)c3ccccc3-c3ccc(C(F)(F)F)cc3)cc2)CC1` [Compound 69], for which the IC50 was 7.94 µM. Against the preceding molecule, the IC50 is about 21-fold higher. The same measure for `Cc1ccc([N+](=O)[O-])c(NC(=O)N2CCC(c3ccc(NC(=O)c4ccccc4-c4ccc(C(F)(F)F)cc4)cc3)CC2)c1C` [Compound 116]: 2.19 µM; for `O=C(Nc1ccc(N2CCN(C(=O)Nc3c(Cl)cccc3Cl)CC2)cc1)c1cccc(N2CCS(=O)(=O)CC2)c1` [Compound 43]: 0.437 µM; for `O=C(Nc1ccc(N2CCN(C(=O)Nc3c(Cl)cccc3Cl)CC2)cc1)c1cccc(N2CCCCS2(=O)=O)c1` [Compound 41]: 0.0191 µM. For `Cc1cccc([N+](=O)[O-])c1NC(=O)N1CCN(c2ccc(NC(=O)c3ccccc3-c3ccc(C(F)(F)F)cc3)cc2)CC1` [Compound 95], the IC50 was 0.407 µM.

With `O=C(Nc1ccc(N2CCN(C(=O)Nc3c(Cl)cccc3Cl)CC2)cc1)c1cccc(-c2cnco2)c1` [Compound 16], the IC50 is 0.012 µM. As for `O=C(Nc1ccc(N2CCN(C(=O)Nc3c(Cl)cccc3Cl)CC2)cc1)c1ccccc1-c1nnn[nH]1` [Compound 32], the midpoint of inhibition, the IC50, lay at 3.31 µM.

The record behind these values is patent publication US9227935B2, “Piperidine/piperazine derivatives” (Janssen Pharmaceutica N.V., priority 2007, dated 2016).
